Reference: article PMC7760690, “Neuroprotective Metabolites from Vietnamese Marine Derived Fungi of Aspergillus and Penicillium Genera” (Marine Drugs, 2020)
Read-outs that look alike come from different tables or passages of the source.

Assays:
[1] = system: murine lymphoma L5178Y cell line; design: method as in doi:10.1016/j.phytol.2015.06.003; details: cited from earlier work
[2] = system: rotenone-treated Neuro-2a cells; assay: Rotenone-induced PD cell model, cell viability (MTT); format: cell-based, murine; details: compounds 1-5; 1 and/or 10 µM; rotenone 10 µM; 24 h
Protocol: (§1) The murine neuroblastoma cell line Neuro-2a was purchased from ATCC.
(§2) Neuro-2a cells were cultured in DMEM medium containing 10% fetal bovine serum (Biolot, St. Petersburg, Russia) and 1% penicillin/streptomycin (Biolot, St. Petersburg, Russia). Cells were incubated at 37 °C in a humidified atmosphere containing 5% (v/v) CO2 [71].
(§3) The neuroblastoma Neuro-2a line cells (1 × 10^4 cells/well) were treated with the test compounds at concentrations of 1 and/or 10 µM for 1 h, and then the neurotoxins were added to the neuroblastoma cell suspensions. Rotenone (Sigma-Aldrich, USA) was used at the concentration of 10 µM. Paraquat (Sigma-Aldrich, USA) was used at 500 µM. 6-Hydroxydopamine (Sigma-Aldrich, USA) was used at 50 µM. Cells incubated without neurotoxins and the test compounds and cells incubated with neurotoxins only were used as positive and negative controls, respectively. After 24 h of incubation, the cell viabilities were measured using the MTT method. The results are presented as the percent of positive control data.

[3] = cited from earlier work
[4] = system: PQ-treated Neuro-2a cells; assay: ROS level in PQ-treated cells (H2DCFDA); format: cell-based, murine; details: compounds 1-5; compound 10 µM 1 h, PQ 500 µM 1 h
Protocol: as §1, §2
[…] Then, 6-OHDA/PQ/rotenone were added to cell suspension to resulting concentration of 50 µM, 500 µM and 10 µM respectively for incubation during 1 h. Cells incubated without neurotoxins and compounds and with neurotoxins alone were used as positive and negative controls, respectively. The 20 µL of 2,7-dichlorodihydrofluorescein diacetate solution (H2DCFDA, Molecular Probes, Eugene, OR, USA) was added to each well (10 µM, final concentration) and the plate was incubated for an additional 10 min at 37 °C. The intensity of dichlorofluorescein fluorescence was measured with PHERAstar FS plate reader (BMG Labtech, Ortenberg, Germany) at λex = 485 nm and λem = 518 nm. The data were processed by MARS Data Analysis v. 3.01R2 (BMG Labtech, Germany). The results were presented as the percent of positive control data.

[5] = system: rotenone-treated Neuro-2a cells; assay: ROS level in rotenone-treated cells (H2DCFDA); format: cell-based, murine; details: compounds 1-5; compound 10 µM 1 h, rotenone 10 µM 1 h
Protocol: as §1, §2
(§4) The cells (1 × 10^4 cells/well of a 96-well plate) were incubated with compound solutions (10 µM) during 1 h. Then, 6-OHDA/PQ/rotenone were added to cell suspension to resulting concentration of 50 µM, 500 µM and 10 µM respectively for incubation during 1 h. Cells incubated without neurotoxins and compounds and with neurotoxins alone were used as positive and negative controls, respectively. The 20 µL of 2,7-dichlorodihydrofluorescein diacetate solution (H2DCFDA, Molecular Probes, Eugene, OR, USA) was added to each well (10 µM, final concentration) and the plate was incubated for an additional 10 min at 37 °C. The intensity of dichlorofluorescein fluorescence was measured with PHERAstar FS plate reader (BMG Labtech, Ortenberg, Germany) at λex = 485 nm and λem = 518 nm. The data were processed by MARS Data Analysis v. 3.01R2 (BMG Labtech, Germany). The results were presented as the percent of positive control data.

[6] = DPPH radical scavenger assay; details: 30 min; for DPPH Radical Scavenging 100 µM % of MeOH: compound 100 µM, absorbance 520 nm
Protocol: The DPPH radical scavenging activities of the compounds were tested as described.
The compounds were dissolved in MeOH, and the solutions (120 µL) were dispensed into wells of a 96-well microplate. In all, 30 µL of the DPPH (Sigma-Aldrich, Steinheim, Germany) solution in MeOH (7.5 × 10^−3 M) was added to each well. The concentrations of the test compounds in the mixtures were 10 and 100 µM. The mixtures were shaken and left to stand for 30 min, and the absorbance of the resulting solutions was measured at 520 nm with a microplate reader MultiscanFC (ThermoScientific, Waltham, MA, USA). The concentration scavenging 50% of the DPPH radical (EC50) was calculated for each investigated compound.

[7] = system: Neuro-2a cells treated with 6-OHDA; assay: 6-OHDA-induced PD cell model, cell viability (MTT); format: cell-based, murine; details: compounds 1-5; 1 and/or 10 µM; 6-OHDA 50 µM; 24 h
Protocol: as §1, §2, §3

[8] = system: methicillin-resistant Staphylococcus aureus (MRSA), S. aureus, Enterococcus faecalis and Acinetobacter baumannii, E. coli and Klebsiella pneumonia; design: method as in PMID 30946944; details: cited from earlier work
[9] = system: K562, BEL-7042, SGC-7901, A-549 and Hela cell lines; design: method as in PMID 30946944; details: cited from earlier work
[10] = system: PQ-treated Neuro-2a cells; assay: Paraquat-induced PD cell model, cell viability (MTT); format: cell-based, murine; details: compounds 1-5; 1 and/or 10 µM; paraquat 500 µM; 24 h
Protocol: as §1, §2, §3

[11] = system: neuroblastoma Neuro-2a cells; assay: MTT cytotoxicity assay; format: cell-based, murine; details: up to 100 µM
Protocol: as §1, §2
(§5) The in vitro cytotoxicity of the individual substances was evaluated using an MTT (3-(4,5-dimethylthiazol-2-yl)-2,5-diphenyltetrazolium bromide) assay, which was performed according to the manufacturer’s instructions (Sigma-Aldrich, USA). Absorbance of the converted formazan was measured using a Multiskan FC plate photometer (Thermo Scientific, Waltham, MA, USA) at λ = 570 nm. The results were presented as percent of control data, and concentration of cell viability inhibition on 50% (IC50) was calculated.

[12] = MTT cytotoxicity assay; format: cell-based, murine; details: mouse, Neuro-2a neuroblastoma cells; Neuro-2a cells, MTT
Protocol: as §1, §2, §5

[13] = system: 6-OHDA-treated Neuro-2a cells; assay: ROS level in 6-OHDA-treated cells (H2DCFDA); format: cell-based, murine; details: compounds 1-5; compound 10 µM 1 h, 6-OHDA 50 µM 1 h
Protocol: as §1, §2, §4

[14] = system: HeLa; design: method as in PMID 24871461; details: cited from earlier work
[15] = system: a number of other cell lines; design: method as in PMID 17994702, PMID 30658264; details: cited from earlier work
[16] = system: several microbial pathogens; design: method as in PMID 17994702, doi:10.1016/j.phytol.2015.04.009; details: cited from earlier work

Structure (SMILES) | cytotoxicity [1] | effect on viability of rotenone-treated cells [2] | EC50 ([3]; reported earlier, read-out: DPPH Radical Scavenging EC50) [µM] | DPPH radical scavenging activity ([3]; via donation of a hydrogen atom and adduct forming) | influence on ROS level in PQ-treated cells [4] | influence on ROS level in rotenone-treated cells [5] | DPPH Radical Scavenging 100 µM % of MeOH [6] | effect on viability of Neuro-2a cells incubated with 6-OHDA [7] | antibacterial activities [8] | cytotoxic activities [9] | effect on viability of PQ-treated cells [10] | cytotoxicity against Neuro-2a cells [11] | IC50 [12] [µM] | influence on ROS level in 6-OHDA-treated cells [13] | EC50 ([6]; MeOH, read-out: DPPH Radical Scavenging EC50) [µM] | cytotoxicity [14] | cytotoxicity [15] | antimicrobial activity [16]
Cc1cc(O)c(C)c(=O)o1 [Compound 4, 4-hydroxy-3,6-dimethyl-2-pyrone] | weak cytotoxicity | did not affect | 500 | shows DPPH radical scavenging activity | had almost no effect | significantly reduced the ROS level | 87.2 ± 1.4 % of MeOH | did not demonstrate any protective effects | ineffective | ineffective | had no effect on viability | not cytotoxic | > 100 | – | – | – | – | –
C[C@H](O)CC1=C[C@H](O)[C@@H](C)OC1=O [Compound 5, Dihydroaspyrone] | – | did not affect | – | – | significantly reduced the ROS level | significantly reduced the ROS level | 95.2 ± 1.0 % of MeOH | did not demonstrate any protective effects | – | – | statistically increased viability of PQ-treated cells only | not cytotoxic | > 100 | reduced ROS level | > 100 | weak cytotoxicity | did not show cytotoxicity | did not show
